# According to article PMC8904520, “Characterization of a small-molecule inhibitor targeting NEMO/IKKβ to suppress colorectal cancer growth” (Signal Transduction and Targeted Therapy, 2022):
# Like-named read-outs stand apart in the source and are kept apart here.
# Columns and labels:
# NEMO/IKKβ complex = target: T1, NEMO/IKKβ complex (Homo sapiens, UniProt O14920+Q9Y6K9); test: Co-immunoprecipitation of NEMO/IKKβ; details: Co-IP
# T1 construct: expressed in transfected cells; host or cells: HEK293T
# Method: The pre-cleared cell lysates were incubated with an anti-HA antibody on a rotating platform at 4 °C for 2 h, and then incubated for another 6 h with protein A/G-sepharose beads. The sepharose beads were washed three times with binding buffer, mixed with gel loading buffer and boiled for 5 min. The samples were centrifuged and the supernatants were used for western blot analysis. A specific antibody against the Flag-tag was applied for the detection of proteins.
# The IKKβ and NEMO expression vectors were constructed by subcloning the full-length cDNA to pENTER-4T1 expression vector (Flag- or HA-tagged) developed by ViGene Biosciences, as described previously.[25] The 293T cells (1 × 10^6) were plated into 60 mm dishes for 1 day, and then transfected with the relevant plasmids encoding HA-IKKβ and Flag-NEMO using Lipofectamine 2000 transfection reagent (Invitrogen). After transfection, the cells were cultured for another 24 h. Subsequently, the transfected cells were trypsinized and seeded into 60 mm dishes, followed by culturing with fresh medium containing the indicated doses of SHK for 48 h, and then collected for the Co-IP assay.
# GST-NEMO (1–196) [1] = target: T2, GST-NEMO (1–196) (Homo sapiens, UniProt Q9Y6K9); test: MST binding assay to NEMO
# T2 construct: assays using MBP-IKKβ (701–745) and GST-NEMO (1–196) peptides; made in house; host or cells: E. coli BL21(DE3)
# GST-NEMO (1–196) [2] = target: T2, GST-NEMO (1–196); test: SPR affinity assay on captured GST-NEMO; type: binding
# Method: According to the instructions from GE, an anti-GST antibody was immobilized onto the CM5 chip surface. The sensor surface was activated with NHS and EDC, after which 15 μg/mL of anti-GST antibody was injected for 420 s and the surface was blocked with 1 M ethanolamine, pH 8.5. […] For each analyte, 50 μg/mL of GST-G was captured for 60 s and 10 mM glycine-HCl (pH 2.1) was used to regenerate the surface. MBP-B was analyzed with 120 s injection and 120 s dissociation. A series of SHK concentrations was analyzed with 90 s injection and 90 s dissociation.
# LoVo xenograft tumor = LoVo xenograft tumor model; type: in vivo, athymic nude mice; details: mice
# Method: Female athymic nude mice aged 5 weeks were purchased from Beijing Vital River Laboratory Animal Technology Co., Ltd., and kept in the SPF Laboratory Animal Center of Dalian Medical University (Dalian, China). All animals were given free access to sterilized food and water and were habituated for 7 days before the experiments. All procedures were carried out in strict accordance with the recommendations established by the Animal Care and Ethics Committee of Dalian Medical University as well as the guidelines promulgated in the U.S. National Institutes of Health Guide for the Care and Use of Laboratory Animals. LoVo cells (LoVo/wt and LoVo/ mut, 5×10^6 in 100 μL PBS) were injected subcutaneously near the axillary fossa of each nude mouse. Two weeks later, when the formed tumor reached 3-4mm, the animals were divided randomly into three groups with 5 mice in each group. […] The tumors were measured with a caliper once every two days, and the tumor volume was calculated using the formula V = 1/2 (width^2 × length). The body weight of the animals was also recorded. After treatment with SHK for 15 days, all experimental mice were sacrificed and the tumors from each mouse were excised and their weight was measured. To determine the expression of the indicated proteins, the tumor tissues were fixed with 10% neutral formalin and embedded in paraffin. Then, 4 μm sections were stained with hematoxylin and eosin, in combination with specific antibodies (iNOS (1:100), COX-2 (1:50), IL-6 (1:100)), and TNFα (1:200)). The stained samples were examined under a Leica DM 4000B fluorescence microscope equipped with a digital camera. The other parts of the tumors were used to prepare tumor tissue lysates for western blot analysis.
# [3] = test system: colorectal cancer cells (LoVo, RKO, SW620, HCT15, HCT116); test: CCK-8 cell viability assay, colorectal cancer cells; type: cell-based, human; details: 48 h
# Method: (§1) Cell viability was determined using the CCK-8 assay. Briefly, 5×10³ cells were seeded into 96-well culture plates, allowed to adhere for overnight, and then changed to fresh medium containing various concentrations of SHK (0, 0.5, 1, 2 and 5 µM) dissolved in DMSO (final concentration, 0.1%). After incubation for 48 h, the CCK-8 reagent was added, and the absorbance was measured at 450 nm using an EnSpire® Multimode Plate Reader (Perkin Elmer, USA). The cell viability in the vehicle control groups was defined as 100%. Each assay was carried out in triplicate.
# CCD841 CoN cells = test: CCK-8 cell viability assay, normal colonic epithelial cells; type: cell-based, human; details: 0.5–5 μM, 48 h
# Method: as §1
# LoVo cells = test: Real-time cell growth (xCELLigence) in IKKβ or NEMO depleted or mutant LoVo cells; type: cell-based, human; details: SHK 1 μM
# MBP-IKKβ (701–745) = target: T3, MBP-IKKβ (701–745) (Homo sapiens, UniProt O14920); test: SPR affinity assay on immobilized MBP-IKKβ; type: binding
# T3 construct: made in house; host or cells: E. coli BL21(DE3)
# T3 sequence (O14920 701-745): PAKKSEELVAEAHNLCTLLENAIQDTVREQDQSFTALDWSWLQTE
# Method: The sensor surface was activated with a 7 min injection of a mixture comprising 50 mM N-hydroxysuccinimide (NHS) and 200 mM 1-ethyl-3-(3- dimethylaminopropyl) carbodiimide (EDC). Then, 33 μg/mL of IKKβ was injected to reach the target level of 500 RU and the surface was blocked with 1 M ethanolamine, pH 8.5. A series of concentrations of NEMO or SHK were injected into the flow system and analyzed for 90 or 120 s, followed by dissociation for 90 or 600 s. All binding analyses was performed in phosphate-buffered saline (PBS, pH 7.4) with 0.05% (v/v) Tween-20 at 25 °C. Prior to analysis, double reference subtractions were made to eliminate bulk refractive index changes, injection noise, and data drift. The binding affinity was determined by fitting to a Langmuir 1:1 binding model in the Biacore Evaluation software (GE Healthcare).
# T2 sequence (Q9Y6K9 1-196): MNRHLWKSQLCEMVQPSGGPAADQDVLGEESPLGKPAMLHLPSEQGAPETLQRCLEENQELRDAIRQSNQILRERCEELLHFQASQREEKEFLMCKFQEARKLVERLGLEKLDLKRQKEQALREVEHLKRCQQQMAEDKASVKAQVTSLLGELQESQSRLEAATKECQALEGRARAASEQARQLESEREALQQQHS
compound,measurement,setting,value
"CC(C)=CC[C@@H](O)C1=CC(=O)c2c(O)ccc(O)c2C1=O [SHK, Shikonin]",association of full-length HA-IKKβ and Flag-NEMO,NEMO/IKKβ complex; HEK293T cells,greatly reduced
same,ability to destabilize the NEMO/IKKβ complex,NEMO/IKKβ complex; pre-formed complex,effectively reversed their association
same,Kd,GST-NEMO (1–196) [1],14.2 ± 1.7 µM
same,Kd,GST-NEMO (1–196) [2],8.29 ± 2.38 µM
same,tumor volume,LoVo xenograft tumor; 2.5 and 5 mg/kg daily,dramatically decreased
same,tumor weight,LoVo xenograft tumor; 2.5 and 5 mg/kg daily,dramatically decreased
same,side effects (body weight),LoVo xenograft tumor; 2.5 and 5 mg/kg,slight side effects
same,IC50,"[3]; Homo sapiens, CCK-8, range over cell lines, read-out: IC50 for inhibition of proliferation in colorectal cancer cells",0.6 to 2.5 µM
same,growth inhibition of cancer cell lines,"[3]; LoVo, RKO, SW620, HCT15, HCT116",dose-dependent growth inhibition
same,growth inhibitory effect in normal colonic epithelial cells,CCD841 CoN cells,absent
same,inhibitory effect on growth of single point mutation cells compared with wild-type,"LoVo cells; LoVo cells rescued with L737A, M94A, Q98A or R101A",significantly weakened
same,inhibitory effect on growth of IKKβ or NEMO depletion cells,LoVo cells; LoVo cells with shRNA,significantly weakened
same,Kd,"MBP-IKKβ (701–745); KD for MBP-IKKβ (701–745), SPR",8.19 ± 1.92 µM
same,Kd,"MBP-IKKβ (701–745); approximate summary value in discussion (SPR and MST), read-out: KD for either IKKβ or NEMO alone",~10 µM
